Assay results taken from patent US5225528A, “Cyclic hexapeptide oxytocin antagonists” (priority 1990, dated 1993).
Like-named read-outs stand apart in the source and are kept apart here. Square brackets hold non-standard residues; d marks the D form. Peptide text beside a SMILES is read from it. * marks the point of attachment. dPiz(1,6-dehydro) = O=C(O)[C@H]1CCC=NN1; dNMeY = CN[C@H](Cc1ccc(O)cc1)C(=O)O; dNMeF = CN[C@H](Cc1ccccc1)C(=O)O; Pip = O=C(O)[C@@H]1CCCCN1; dPip = O=C(O)[C@H]1CCCCN1; Bn = c1ccc(C*)cc1

What was measured:
uterine OT receptors = biological target: T1, uterine OT receptors (Rattus norvegicus, UniProt P70536); experiment: [^3 H]OT binding to uterine OT receptors, crude membrane preparation of uteri from DES-treated rats; conditions: for IC50: rat uterus membranes, 1 nM [^3 H]OT, read-out: Receptor Binding Results IC50 (nM) [^3 H]OT
T1 construct: from tissue; host or cells: uterus of DES-treated rats, crude membranes
T1 sequence (P70536 1-388): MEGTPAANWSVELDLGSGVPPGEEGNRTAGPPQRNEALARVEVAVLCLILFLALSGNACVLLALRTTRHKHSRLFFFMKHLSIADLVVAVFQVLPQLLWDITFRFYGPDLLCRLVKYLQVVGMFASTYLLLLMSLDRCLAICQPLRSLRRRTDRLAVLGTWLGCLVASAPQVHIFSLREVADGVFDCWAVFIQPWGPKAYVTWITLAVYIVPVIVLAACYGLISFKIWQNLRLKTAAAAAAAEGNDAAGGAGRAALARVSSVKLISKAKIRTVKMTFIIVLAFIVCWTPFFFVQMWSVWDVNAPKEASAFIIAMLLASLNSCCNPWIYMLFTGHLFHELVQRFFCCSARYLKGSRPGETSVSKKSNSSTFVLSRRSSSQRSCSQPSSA
Experimental: Competition studies were conducted at equilibrium (60 minutes; 22° C.) using 1 nM [^3 H]OT in the following assay buffer: 50 mM Tris-HCl, 5 mM MgCl2, and 0.1% BSA, pH 7.4.

AVP-V1 sites = biological target: T2, AVP-V1 sites (Rattus norvegicus, UniProt P30560); experiment: [^3 H]AVP binding to crude membrane preparation of male rat liver (AVP-V1 sites)
T2 construct: crude membrane preparation of male rat liver (AVP-V1 sites); from tissue; host or cells: male rat liver, crude membranes
Experimental: (§1) Nonspecific binding (5-10% of the total binding) was determined using 10 μM unlabeled AVP, and the binding reaction was terminated by filtration as described above for the [^3 H]OT binding assay.

AVP-V2 sites = biological target: T3, AVP-V2 sites (Rattus norvegicus, UniProt Q00788); experiment: [^3 H]AVP binding to crude membrane preparation of male rat kidney medulla (AVP-V2 sites); conditions: read-out: Receptor Binding Results IC50 (nM) [^3 H]-AVP-V2
T3 construct: male rat liver (AVP-V1 sites) or kidney medulla (AVP-V2 sites); from tissue; host or cells: male rat kidney medulla, crude membranes
Experimental: as §1

[1] = read-out: Receptor Binding Results IC50 (nM) [^3 H]-AVP-V1
[2] = Receptor Binding Results IC50 (nM) [^3 H]-AVP-V1
[3] = rat kidney medulla membranes, 2 nM [^3 H]AVP

T2 sequence (P30560 whole entry): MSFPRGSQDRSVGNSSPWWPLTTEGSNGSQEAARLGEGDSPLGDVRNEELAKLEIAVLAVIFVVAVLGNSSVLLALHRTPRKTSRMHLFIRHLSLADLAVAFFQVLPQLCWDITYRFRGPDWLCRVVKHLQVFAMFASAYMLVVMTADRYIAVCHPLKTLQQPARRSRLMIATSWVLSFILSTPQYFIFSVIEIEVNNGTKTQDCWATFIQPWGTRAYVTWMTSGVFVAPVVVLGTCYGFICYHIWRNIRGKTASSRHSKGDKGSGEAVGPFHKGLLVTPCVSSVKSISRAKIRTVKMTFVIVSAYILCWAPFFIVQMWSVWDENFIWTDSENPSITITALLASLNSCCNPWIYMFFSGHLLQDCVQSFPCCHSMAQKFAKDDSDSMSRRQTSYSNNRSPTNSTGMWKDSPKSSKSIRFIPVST
T3 sequence (Q00788 whole entry): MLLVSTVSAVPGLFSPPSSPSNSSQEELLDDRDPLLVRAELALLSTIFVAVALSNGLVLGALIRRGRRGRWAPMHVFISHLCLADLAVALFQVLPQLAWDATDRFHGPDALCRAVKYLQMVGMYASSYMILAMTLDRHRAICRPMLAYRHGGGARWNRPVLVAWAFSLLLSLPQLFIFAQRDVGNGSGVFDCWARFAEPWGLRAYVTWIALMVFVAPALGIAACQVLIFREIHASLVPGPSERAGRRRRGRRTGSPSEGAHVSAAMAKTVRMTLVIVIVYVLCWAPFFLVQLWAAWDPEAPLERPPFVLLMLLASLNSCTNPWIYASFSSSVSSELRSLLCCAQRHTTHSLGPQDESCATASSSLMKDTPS

IC50 (uterine OT receptors) [nM] | IC50 (AVP-V1 sites; [1]) [nM] | IC50 (AVP-V2 sites) [nM] | SMILES | IC50 (AVP-V1 sites; [2]) [nM] | IC50 (AVP-V2 sites; [3]) [nM] | inhibition at 1 µM (uterine OT receptors; 1 h, @ 1,000 (nM), read-out: [^3 H]OT: percent inhibition of radioligand at the given concentration) [%]
21 | 610 | 570 | CC[C@H](C)[C@@H]1NC(=O)[C@@H](Cc2ccccc2)NC(=O)[C@@H]2CCCN2C(=O)[C@@H](Cc2ccccc2)N(C)C(=O)[C@H](CCCCN)NC(=O)[C@H]2CCC=NN2C1=O [Example 174, c-[D-Phenylalanyl-L-isoleucyl-D-Δ-piperazyl-L-Lysyl-N-Me-D-phenylalanyl-L-prolyl]] (cyclo(I[dPiz(1,6-dehydro)]K[dNMeF]P[dF])) | – | – | –
7.9 | 9300 | 245 | CC[C@H](C)[C@@H]1NC(=O)[C@@H](Cc2c[nH]c3ccccc23)NC(=O)[C@@H]2CCCN2C(=O)[C@@H](Cc2ccc(O)cc2)N(C)C(=O)[C@@H]2CCCCN2C(=O)[C@H]2CCCCN2C1=O [Example 137, c-[D-Tryptophanyl-L-isoleucyl-D-pipecolyl-L-pipecolyl-D-(N-methyl)tyrosyl-L-prolyl]] (cyclo(I[dPip][Pip][dNMeY]P[dW])) | – | – | –
– | – | – | CC[C@H](C)[C@@H]1NC(=O)[C@@H](Cc2ccc(OCc3ccccc3)cc2)NC(=O)[C@@H]2CCCN2C(=O)[C@@H](Cc2ccccc2)N(C)C(=O)[C@H](CCCCN)NC(=O)[C@H]2CCCCN2C1=O [Example 145, C-[D-(O-Benzyl)Tyrosyl-L-isoleucyl-D-pipecolyl-L-lysyl-D-(N-methyl)phenylalanyl-L-prolyl]] (cyclo(I[dPip]K[dNMeF]P[dY](Bn))) | > 10000 | 10000 | 9

SMILES | IC50 (uterine OT receptors) [nM] | IC50 (AVP-V1 sites; [1]) [nM] | IC50 (AVP-V2 sites) [nM] | IC50 (AVP-V1 sites; [2]) [nM] | IC50 (AVP-V2 sites; [3]) [nM] | inhibition at 1 µM (uterine OT receptors; 1 h, @ 1,000 (nM), read-out: [^3 H]OT: percent inhibition of radioligand at the given concentration) [%]
CC[C@H](C)[C@@H]1NC(=O)[C@@H](Cc2ccccc2)NC(=O)[C@@H]2CCCN2C(=O)[C@@H](Cc2ccccc2)NC(=O)[C@H](CC(N)=O)NC(=O)[C@H]([C@@H](C)O)NC1=O [Example 98, c-[D-Phenylalanyl-L-isoleucyl-L-threonyl-L-asparagyl-D-phenylalanyl-L-prolyl]] (cyclo(ITN[dF]P[dF])) | 7700 | – | – | > 10000 | > 10000 | –
